Measured values published in patent publication US12402622B2, “Agricultural compositions and methods of use thereof” (Valent U.S.A. LLC, priority 2019, dated 2025).

Tests used:
crabgrass = experiment: Control of crabgrass (10 inches), spray chamber, sugar alcohol rate series, Example 3; assay type: in vivo, Digitaria sanguinalis; conditions: for % control: S-3100 20 g/HA alone; for control of crabgrass relative to S-3100 alone: 7 and 14 DAT, sugar alcohol at 1700, 3400, 6800, 13600 and 27200 g/HA with S-3100
Experimental: (§1) 12 trials were conducted on the efficacy of S-3100 with or without mannitol or sorbitol at various application rates. Specifically, 12 plots of crabgrass were grown to 10 inches in height. These plots were placed in a spray chamber for treatment. All compositions contained 1% v/v of Agridex® and 0.25% v/v of Induce®. Treatments and results can be found in Table 3, below.

volunteer corn = experiment: Control and lodging of volunteer corn (14 inches), spray chamber, sugar alcohol rate series, Example 4; assay type: in vivo; conditions: for lodging on addition of the sugar alcohol to S-3100: addition to S-3100, rate not given; for control of volunteer corn relative to S-3100 alone: sugar alcohol at 1700, 3400, 6800, 13600 and 27200 g/HA with S-3100
Experimental: as §1, with “of volunteer corn” for “of crabgrass”, “to 14” for “to 10”, “Table 4,” for “Table 3,”

[1] = system: soybean petioles/leaves at V6 stage; experiment: Soybean petiole detached assay (translocation of S-3100), Example 6; assay type: in vivo; conditions: 21 DAT, S-3100 20 g/HA, mannitol or sorbitol 6800 g/HA, FIG. 1
Experimental: FIG. 1. Soybean plant leaf at V6 stage. A. untreated control. B. Treated with 20 g/HA S-3100. C. Treated with 6800 g/HA mannitol. D. Treated with 6800 g/HA sorbitol. E. Treated with 20 g/HA S-3100 and 6800 g/HA mannitol. F. Treated with 20 g/HA S-3100 and 6800 g/HA sorbitol.
4 plots of soybeans were grown to the V6 stage. Soybean petioles of plants at the V6 stage were treated in a petiole detached assay with 1 of the following 4 treatments: 1) untreated; 2) 20 g/HA S-3100; 3) 20 g/HA S-3100 and 6800 g/HA mannitol or 4) 20 g/HA S-3100 and 6800 g/HA sorbitol. Results were recorded 21 DAT. Results can be seen in FIG. 1.

barnyard grass [2] = experiment: Control of barnyard grass (10 inches), spray chamber, sugar alcohol rate series, Example 5; assay type: in vivo, Echinochloa crus-galli; conditions: for % control: S-3100 20 g/HA alone; for control of barnyard grass relative to S-3100 alone: 7 and 14 DAT, sugar alcohol at 1700, 3400, 6800, 13600 and 27200 g/HA with S-3100
Experimental: as §1, with “barnyard grass” for “crabgrass”, “5,” for “3,”

barnyard grass [3] = experiment: Control of barnyard grass (6 inches), spray chamber, Example 1; assay type: in vivo, Echinochloa crus-galli; conditions: S-3100 20 g/HA, mannitol or sorbitol 6800 g/HA where combined
Experimental: 4 trials were conducted on the efficacy of ethyl [3-[2-chloro-4-fluoro-5-(1-methyl-6-trifluoromethyl-2,4-dioxo-1,2,3,4-tetrahydropyrimidin-3-yl)phenoxy]-2-pyridyloxy]acetate (“S-3100”) with or without mannitol or sorbitol. Specifically, 4 plots of barnyard grass were grown to 6 inches in height. These plots were placed in a spray chamber for treatment. All compositions contained 1% v/v of Agridex® and 0.25% v/v of Induce®. Treatments and results can be found in Table 1, below.

corn = experiment: Control of corn (12 inches), spray chamber, Example 2; assay type: in vivo; conditions: S-3100 20 g/HA, mannitol or sorbitol 6800 g/HA where combined
Experimental: 4 trials were conducted on the efficacy of S-3100 with or without mannitol or sorbitol. Specifically, 4 plots of corn were grown to 12 inches in height. These plots were placed in a spray chamber for treatment. All compositions contained 1% v/v of Agridex® and 0.25% v/v of Induce®. Treatments and results can be found in Table 2, below.

Structure (SMILES) | % control (crabgrass; 7 DAT) [%] | % control (crabgrass; 14 DAT) [%] | % control (volunteer corn; 7 DAT, S-3100 20 g/HA alone) [%] | % lodging (volunteer corn; 8 DAT, S-3100 20 g/HA alone) [%] | leaf symptoms (necrosis, yellowing, bronzing) as sign of translocation [1] | % control (barnyard grass [2]; 7 DAT) [%] | % control (barnyard grass [2]; 14 DAT) [%] | % control (barnyard grass [3]; 2 days after treatment, 1% v/v Agridex, 0.25% v/v Induce) [%] | % control (barnyard grass [3]; 7 days after treatment) [%] | % control (barnyard grass [3]; 13 days after treatment) [%] | % control (barnyard grass [3]; 20 days after treatment) [%] | % control (corn; 9 days after treatment, 1% v/v Agridex, 0.25% v/v Induce) [%] | % control (corn; 13 days after treatment) [%] | % control (corn; 22 days after treatment) [%] | control of crabgrass relative to S-3100 alone (crabgrass) | lodging on addition of the sugar alcohol to S-3100 (volunteer corn) | control of volunteer corn relative to S-3100 alone (volunteer corn) | control of barnyard grass relative to S-3100 alone (barnyard grass [2])
CCOC(=O)COc1ncccc1Oc1cc(-n2c(=O)cc(C(F)(F)F)n(C)c2=O)c(F)cc1Cl [S-3100, ethyl [3-[2-chloro-4-fluoro-5-(1-methyl-6-trifluoromethyl-2,4-dioxo-1,2,3,4-tetrahydropyrimidin-3-yl)phenoxy]-2-pyridyloxy]acetate] | 81.3 | 76.9 | 80.6 | 75 | leaf yellowing and vein necrosis especially on the main vascular tissue | 94.1 | 89.1 | 27.2 | 72.1 | 49.3 | 40 | 55.8 | 52.5 | 25 | – | – | – | –
OC[C@@H](O)[C@@H](O)[C@H](O)[C@H](O)CO [mannitol] | – | – | – | – | necrotic areas on the leaf tissue | – | – | – | – | – | – | – | – | – | increase control of crabgrass over S-3100 alone | did not increase lodging | increase control of volunteer corn over S-3100 alone | increase control of barnyard grass over S-3100 alone
OC[C@@H](O)[C@@H](O)[C@H](O)[C@@H](O)CO [sorbitol] | – | – | – | – | – | – | – | – | – | – | – | – | – | – | increase control of crabgrass over S-3100 alone | 100% | increase control of volunteer corn over S-3100 alone | increase control of barnyard grass over S-3100 alone
